Results published in patent US6340698B1, “Antifungal solutions” (priority 1999, dated 2002).

Tests used:
Type in all cases: physicochemical
Solubility in water = assay: Solubility in water
[1] = Solubility in strong acids (glacial acetic acid, concentrated hydrochloric acid)
Text: For example, 1 g of free itraconazole can be dissolved in about 3 g of glacial acetic acid or about 3 to 4 g of concentrated hydrochloric acid (i.e. 36-38% HCl in water).

[2] = Dilution with water of a solution in strong acid; conditions: solution in strong acid diluted with water to weaken the acid
Method: However, strongly acidic solutions are unsuitable for oral administration, and if a solution of itraconazole or saperconazole in strong acid is diluted with water to weaken the acid, the itraconazole or saperconazole precipitates.

Row | solubility in water (Solubility in water) | solubility in strong acids [1] | behaviour when solution in strong acid is diluted with water [2] | SMILES
1 | practically insoluble in water | soluble in strong acids |  | CCC(C)n1ncn(-c2ccc(N3CCN(c4ccc(OCC5COC(Cn6cncn6)(c6ccc(Cl)cc6Cl)O5)cc4)CC3)cc2)c1=O (centres unmarked) [itraconazole, Itraconazole]
2 | practically insoluble in water | soluble in strong acids | precipitates | CCC(C)n1ncn(-c2ccc(N3CCN(c4ccc(OC[C@H]5CO[C@](Cn6cncn6)(c6ccc(F)cc6F)O5)cc4)CC3)cc2)c1=O (some centres unmarked) [saperconazole]
